Legend:
Assay type in all cases: in vivo
[1] = tested on: harmful plants such as Sinapis alba, Echinochloa crus- galli, Lolium multiflorum, Stellaria media, Cyperus iria, Amaranthus retroflexus, Setaria viridis and …; assay: Post-emergence effect on weeds (greenhouse pot test, visual scoring); details: applied post-emergence (three-leaf stage) at an application rate of 1 kg and less of active substance per hectare; scored visually after about 3 to 4 weeks vs untreated controls
Description: 2. Post-emergence Effect on Weeds
Seeds or rhizome pieces of monocotyledonous and dicotyledonous weeds are placed in sandy loam soil in plastic pots, covered with soil and grown in the greenhouse under good growth conditions. Three weeks after sowing, the test plants are treated in the three-leaf stage. The compounds according to the invention which are formulated as wettable powders or as emulsion concentrates are sprayed in various dosages on the green parts of the plants at an application rate of 600 to 800 l of water/ha (converted). After the test plants have remained in the greenhouse for about 3 to 4 weeks under ideal growth conditions, the effect of the preparations is scored visually by comparison with untreated controls. The agents according to the invention also have a good herbicidal post-emergence action against a broad range of economically important grass weeds and dicotyledonous weeds.

[2] = tested on: harmful plants which are typical for rice cultivation, such as Cyperus monti, Echinochloa crus-galli and Sagittaria pygmaea; assay: Effect on harmful plants in rice (paddy rice conditions, visual scoring); details: applied into the flooding water, various dosages, scored visually approximately three weeks after application
Description: 3. Effect on Harmful Plants in Rice
Transplanted and seeded rice and typical broad-leaved and monocotyledonous rice weeds are grown in the greenhouse to the three-leaf stage (Echinochloa crus- galli 1.5 leaf) under paddy rice conditions (depth of the water: 2-3 cm) in sealed plastic pots. They are then treated with the compounds according to the invention. To this end, the formulated active substances are suspended, dissolved or emulsified in water and applied in various dosages by pouring into the water with which the test plants are flooded. After this treatment, the test plants are placed in the greenhouse under ideal growth conditions and kept thus over the entire experimental period.
Approximately three weeks after application, the test is evalued by means of visually scoring the damage to the plants by comparison with untreated controls.

[3] = tested on: harmful plants such as Stellaria media, Lolium multiflorum, Amaranthus retroflexus, Sinapis alba, Avena sativa and Setaria viridis; assay: Pre-emergence effect on weeds (greenhouse pot test, visual scoring); details: applied pre-emergence at an application rate of 1 kg or less of active substance per hectare; scored visually after 3 to 4 weeks vs untreated controls
Excerpt: 1 Pre-emergence Effect on Weeds
Seeds or rhizome pieces of monocotyledonous and dicotyledonous weeds plants are placed in sandy loam soil in plastic pots and covered with soil. The compounds according to the invention which are formulated in the form of wettable powders or emulsion concentrates are then applied to the surface of the soil cover in the form of an aqueous suspension or emulsion at an application rate of 600 to 800 l of water/ha (converted), in various dosages.

SMILES | herbicidal action against harmful plants, post-emergence [1] | herbicidal action against harmful plants typical for rice cultivation [2] | herbicidal action against harmful plants, pre-emergence [3]
COc1cccc(CCC(Nc2nc(N)nc(C(C)(C)F)n2)C2CCC2)c1 (stereo not drawn) [Example 4-24] | very good herbicidal action | good herbicidal action | very good herbicidal action
CC(C)c1nc(N)nc(NC(CCc2ccccc2)C2CCC2)n1 (stereo not drawn) [Example 4-1] | very good herbicidal action | good herbicidal action | very good herbicidal action
CC(C)(F)c1nc(N)nc(NC(CCc2ccccc2)C2CCC2)n1 (stereo not drawn) [Example 4-2, 2-Amino-4-(1-fluoro-1-methylethyl)-6-(3-phenyl-1-cyclobutyl-1-propylamino)-1,3,5-triazine] | very good herbicidal action | good herbicidal action | very good herbicidal action
CC(C)c1nc(N)nc(NC(CCc2cccc(Cl)c2)C2CC2)n1 (stereo not drawn) [Example 9-7] | very good herbicidal action | good herbicidal action | very good herbicidal action
CC(C)(C#N)c1nc(N)nc(NC(CCc2ccccc2)C2CC2)n1 (stereo not drawn) [Example 9-4] | very good herbicidal action | good herbicidal action | very good herbicidal action
COc1cccc(CCC(Nc2nc(N)nc(C(C)C)n2)C2CCC2)c1 (stereo not drawn) [Example 4-23] | very good herbicidal action | good herbicidal action | very good herbicidal action
Cc1cccc(CCC(Nc2nc(N)nc(C(C)(C)F)n2)C2CCC2)c1 (stereo not drawn) [Example 4-15] | very good herbicidal action | good herbicidal action | very good herbicidal action
CC(C)c1nc(N)nc(NC(CCc2ccccc2)C2CC2)n1 (stereo not drawn) [Example 9-9] | very good herbicidal action | good herbicidal action | very good herbicidal action
CC(C)(F)c1nc(N)nc(NC(CCc2ccccc2)C2CC2)n1 (stereo not drawn) [Example 9-10] | very good herbicidal action | good herbicidal action | very good herbicidal action
CC(C)(F)c1nc(N)nc(NC(CCc2cccc(F)c2)C2CC2)n1 (stereo not drawn) [Example 9-5] | very good herbicidal action | good herbicidal action | very good herbicidal action
Cc1cccc(CCC(Nc2nc(N)nc(C(C)C)n2)C2CCC2)c1 (stereo not drawn) [Example 4-14] | very good herbicidal action | good herbicidal action | very good herbicidal action
